Converted amounts (≈) assume the structure as drawn. “And” between values parts separate entries of the source, which are not always exact repeats. Equal entries are not always repeated.

One data set relates to A. baumannii ATCC 1605. The experiment in a line: MIC determination (microbroth dilution). Format: cell-based. To be noted: Acinetobacter baumannii, ATCC1605, multidrug-resistant strain. As for the experimental part: (§1) Cultures were, if not stated differently, incubated at 37 °C with aeration and shaking (150 rpm) in Mueller-Hinton broth (MHB). Bacteria were freshly incubated at the next morning from an overnight pre-culture for actively growing bacteria to an OD600 nm of approx. 0.6. To ensure persistent growth form, the bacteria were grown overnight until a density at OD600 nm > 5.0 was obtained. For biofilm growth, some colonies from a Mueller-Hinton agar (MHA) plate were picked and resuspended in MHB. Cell density has been adjusted to OD600 nm = 0.8, and cells were sown into a flat-bottom 96-well plate to be incubated statically at 37 °C with aeration. Studies were mainly performed with S. aureus Mu50.
(§2) The minimal inhibitory concentration (MIC) has been determined according to the CSLI guidelines (CLSI [2012]). Briefly, in a sterile polystyrene U-bottom 96-well plate, a 2-fold serial dilution ranging from 100 to 0.78 μM of testing compounds has been prepared in 50 μL MHB. A freshly inoculated S. aureus culture was grown until OD600 nm of approx. 0.6 and diluted to 10^6 CFU/mL in MHB. Finally, 50 μL of the latter cell suspension was added to each well and then incubated statically for 18–24 h at 37 °C. MIC was determined using BacTiterGlo ATP assay (Promega, Madison, WI, USA) and Tecan Infinite F200 Pro (Tecan, Männedorf, Switzerland). Moxifloxacin and DMSO were used as positive and negative control, respectively. Sublethal concentrations of colistin (0.1 μM) were used in some experiments to increase the permeability of the gram-negative cell envelope for compound testing. For E. cloacae, a broth microdilution assay was performed using a serial 2-fold dilution in 96-well flat-bottomed plates (Falcon, BD Bioscience, Heidelberg) of both PPs in broth LB medium (Roth, Karlsruhe) at a concentration range of 50–0.024 μM.
(In general: Broth dilution looks for growth in wells or tubes with falling amounts of substance.)

Data set [1] has as its system Pseudomonas aeruginosa PAO1. The experiment in a line: MIC determination (microbroth dilution). Type of data set: cell-based. As for the experimental part:
as §1, §2

The test system of another data set is E. faecalis ATCC 29212. The experiment in a line: MIC determination (microbroth dilution). Format: cell-based. To be noted: Enterococcus faecalis, ATCC29212. As for the experimental part: as §1, §2
Data set [2] has as its system Escherichia coli ATCC 25922. The experiment in a line: MIC determination (microbroth dilution). Format: cell-based. As to conditions: Escherichia coli. As for the experimental part:
as §1, §2

For data set [3], the system named is Enterococcus faecium ATCC 35667. The data set can be described thus: MIC determination (microbroth dilution). Type of data set: cell-based. As to conditions: ATCC35667. As for the experimental part:
as §1, §2

Data set [4] concerns Klebsiella pneumoniae ATCC 700603. The data set can be described thus: MIC determination (microbroth dilution). To be noted: ATCC700603. Type of data set: cell-based. As for the experimental part: as §1, §2
Another data set relates to S. aureus COL. The experiment in a line: MIC determination (microbroth dilution). As to conditions: Staphylococcus aureus. Format: cell-based. As for the experimental part: as §1, §2
Data set [5] concerns Acinetobacter baumannii ATCC 747. The data set can be described thus: MIC determination (microbroth dilution). Format: cell-based. To be noted: Acinetobacter baumannii, ATCC747. As for the experimental part:
as §1, §2

For a further data set, the system named is E. faecalis ATCC 51299. The experiment in a line: MIC determination (microbroth dilution). Format: cell-based. As to conditions: Enterococcus faecalis, ATCC51299. As for the experimental part: as §1, §2
Data set [6] relates to Staphylococcus aureus strain ATCC 25923. The experiment in a line: MIC determination (microbroth dilution). Type of data set: cell-based. As to conditions: ATCC25923. As for the experimental part:
as §1, §2

The test system of the next data set is S. aureus TCH1516. The experiment in a line: MIC determination (microbroth dilution). Type of data set: cell-based. As to conditions: Staphylococcus aureus. As for the experimental part: as §1, §2
A further data set has as its system pre-formed MRSA biofilms. The data set can be described thus: Biofilm viability by CFU plating. Type of data set: cell-based, Staphylococcus aureus. As to conditions: 24 h of treatment, 4× minimal biofilm inhibitory concentration, moxifloxacin 20 μM. As for the experimental part: Additionally, biofilm viability was quantified by CFU plating. Biofilms were pregrown as described above and treated for 24 h with 4× minimal biofilm inhibitory concentrations as calculated from the Resazurin reduction assay. Biofilms were dispersed by pipetting followed by sonification in a water bath. Dilutions were plated on Mueller-Hinton agar plates and incubated overnight at 37 °C.

Data set [7] relates to persisters of P. aeruginosa POA1. The data set can be described thus: Antipersister activity assay (Resazurin). Type of data set: cell-based. To be noted: Pseudomonas aeruginosa, 24 h, read-out: MIC against persisters. For orientation: Alamar Blue is a resazurin reagent that responds to reducing activity.
In a further data set the test system is A. baumannii ATCC 747. The data set can be described thus: Killing kinetics, replicating cells. Type of data set: cell-based. To be noted: 2-bromo-PP 3.125 µM, 3-bromo-PP 6.25 µM; multidrug-resistant Acinetobacter baumannii as worded. As for the experimental part:
39 Figure S2 – Bactericidal effects of 2-bromo-PP and 3-bromo-PP against replicating
40 cells of A. baumannii ATCC 747. Colistin was used as positive control (3.125 µM). 2-
41 bromo-PP and 3-bromo-PP were used at concentrations of 3.125 µM and 6.25 µM,
42 respectively. The limit of detection was 500 CFU/mL.
(1 picture or pasted object on this page, not shown here)

Data set [8] relates to stationary phase-induced persistent cells of MRSA strain Mu50. The experiment in a line: Persister killing kinetics (CFU plating). Type of data set: cell-based, Staphylococcus aureus. As to conditions: start 10^8 CFU/mL. As for the experimental part: For persister killing kinetics, cells were grown overnight until a density of OD600 nm > 5.0 was reached and then washed three times with PBS. Next, cell density was adjusted to 10^8 CFU/mL in 5 mL PBS. […] Analysis was performed as described above.

A further data set relates to human PBMNCs. Further details: method as in Mayer et al. [2019]. To be noted: ref Mayer et al. [2019]; cited from earlier work.
Another data set relates to preformed MRSA biofilms. The data set can be described thus: Biofilm integrity (crystal violet staining, Alcian blue fluorescence microscopy). Format: cell-based, Staphylococcus aureus. As for the experimental part: Viability was measured as described above utilizing the Resazurin reduction assay. Biofilm formation was measured using crystal violet staining as described elsewhere (Christensen et al. [1985]; Stepanovic et al. [2007]). Briefly, biofilms were washed three times with PBS and allowed to air dry before 0.1% (v/v) crystal violet solution (Waldeck GmbH & Co., Münster, Germany) was added to each well. The biofilms were stained for 15 min at room temperature (RT). Afterwards, the plates were washed three times again with PBS, and 30% acetic acid was added for 30 min at RT to solubilise the dye. Finally, 100 μL was transferred to a fresh 96-well plate to measure absorption at 600 nm with a plate reader.
Biofilms were pre-grown as described above. Alcian blue staining was performed to stain the EPS. A 1% Alcian blue staining solution was prepared in 3% glacial acetic acid. Staining solution was added to the biofilm in sufficient amount to cover the whole biofilm and incubated for 30 min at RT. Next, the biofilm was washed twice with PBS, and 200 μL 10% formalin solution was added. Fluorescence microscopy was performed using a Nikon Eclipse TS100 fluorescence microscope.

As a reminder, the MIC90 is the lowest concentration that inhibits either 90% of growth or 90% of the strains tested, depending on the study. As a reminder, the MIC is the lowest concentration that inhibits growth of the organism. Consider `Oc1c(Br)cc(Br)cc1Oc1ccc(Br)cc1Br` [2-bromo-PP, 4,6-dibromo-2-(2′,4′-dibromophenoxy)phenol], for which the MIC90 in the data set with A. baumannii ATCC 1605 (+ 0.1 μM colistin) is 0.39 µM and 0.2 µg/mL; in the data set with A. baumannii ATCC 1605 (without colistin), 0.78 µM and 0.39 µg/mL; in data set [1] it was 0.78 µM and 0.39 µg/mL; against E. faecalis ATCC 29212, 0.78 µM and 0.39 µg/mL; in data set [2] (ATCC25922, + 0.1 μM colistin), 0.04 µM and 0.02 µg/mL; in [2] (ATCC25922, without colistin), 3.12 µM and 1.57 µg/mL. Further, the MIC90 was 0.78 µM and 0.39 µg/mL in [3]; 1.56 µM and 0.78 µg/mL in data set [4]; 0.78 µM and 0.39 µg/mL against S. aureus COL; 0.78 µM and 0.39 µg/mL in data set [5]; 0.78 µM and 0.39 µg/mL in the data set on E. faecalis ATCC 51299; 0.39 µM and 0.2 µg/mL in data set [6]. Moreover, in the data set with S. aureus TCH1516, the MIC90 was 0.78 µM and 0.39 µg/mL. For the same compound, in the data set with pre-formed MRSA biofilms, the “reduction in viable cell counts in biofilms” value was “ca. 5 order of magnitudes”. In [7], the MIC was determined as 12.5 µM (≈ 6.27 µg/mL). The “bactericidal effect against replicating cells” value in the data set with A. baumannii ATCC 747 is “comparable bactericidal effect”. In addition, the “time until viability reduced to the detection limit” value in data set [8] (PPs at 4× MIC, NH125 10 μM, detection limit 10^2 CFU/mL) stood at 8 h. Moreover, the cytotoxicity entry in the data set on human PBMNCs is listed as “low cytotoxicity”. Also, in the data set with preformed MRSA biofilms, the “biofilm integrity / dispersal” value is “Neither 2-bromo-PP (light blue triangle) nor 3-bromo-PP (blue inverted triangle) disperse biofilms”.

For the compound `Oc1c(Br)cc(Br)c(Br)c1Oc1ccc(Br)cc1Br` [3-bromo-PP, 3,4,6-tribromo-2-(2′,4′-dibromophenoxy)phenol], the MIC90 was 0.78 µM and 0.45 µg/mL in the data set with A. baumannii ATCC 1605 (+ 0.1 μM colistin); 1.56 µM and 0.91 µg/mL in the data set with A. baumannii ATCC 1605 (without colistin); 1.56 µM and 0.9 µg/mL in data set [1]; 0.78 µM and 0.45 µg/mL in the data set with E. faecalis ATCC 29212; 0.04 µM and 0.02 µg/mL in [2] (ATCC25922, + 0.1 μM colistin); 6.25 µM and 3.63 µg/mL in data set [2] (ATCC25922, without colistin). In addition, the MIC90 was 0.39 µM and 0.23 µg/mL in data set [3]; 3.12 µM and 1.81 µg/mL in data set [4]; 0.78 µM and 0.45 µg/mL in the data set with S. aureus COL; 3.12 µM and 1.81 µg/mL in [5]; 0.78 µM and 0.45 µg/mL against E. faecalis ATCC 51299; 0.78 µM and 0.45 µg/mL in [6]. Also, the MIC90 against S. aureus TCH1516 is 0.78 µM and 0.45 µg/mL. For the same compound, the “reduction in viable cell counts in biofilms” value in the data set on pre-formed MRSA biofilms was “ca. 5 order of magnitudes”. The MIC in data set [7] came to 50 µM (≈ 29 µg/mL). For the same compound, in the data set on A. baumannii ATCC 747, the “bactericidal effect against replicating cells” value is reported as “comparable bactericidal effect”. Moreover, the “decrease of viability of persistent cells after 24 h” value in data set [8] (3-bromo-PP at 4× MIC, moxifloxacin control, 24 h) is recorded as 2 logs. Further, the cytotoxicity result in the data set with human PBMNCs is “low cytotoxicity”. Moreover, in the data set on preformed MRSA biofilms, the “biofilm integrity / dispersal” value is “Neither 2-bromo-PP (light blue triangle) nor 3-bromo-PP (blue inverted triangle) disperse biofilms”.

(Values after paper PMC8217011, “Natural brominated phenoxyphenols kill persistent and biofilm-incorporated cells of MRSA and other pathogenic bacteria” (Applied Microbiology and Biotechnology, 2020).)
